System: RA patients
Assay: Total cholesterol determination, Study 2 (RA patients, monotherapy with Compound 1)
Assay type: in vivo, human
Source text: Randomized, double-blind, placebo-controlled, multicenter, phase IIb dose finding study of Compound 1 (dosed as a [Compound 1:HCl:3H2O]) administered for 24 weeks as monotherapy to subjects with moderately to severely active rheumatoid arthritis who have an inadequate response to methotrexate alone
Double-blind, placebo-controlled, monotherapy study in subjects with moderately to severely active RA who have an inadequate response to methotrexate (MTX) (oral or parenteral).
280 subjects randomized to one of 3 doses of Compound 1 (dosed as a [Compound 1:HCl:3H2O]) or to placebo, given once daily (q.d.).
Twelve weeks of treatment with Compound 1 (dosed as a [Compound 1:HCl:3H2O]) at 50 mg, 100 mg, or 200 mg q.d.; or placebo. At Week 12, all subjects on placebo and the subjects on the 50 mg dose who have not achieved 20% improvement in swollen joint count (SJC66) and tender joint count (TJC68) will be assigned to 100 mg q.d. in a blinded fashion and will continue treatment until Week 24. Subjects in the other groups will maintain their randomized treatment until Week 24.
This method is based on the determination of Δ^4 cholestenone after enzymatic cleavage of the cholesterol ester by cholesterol esterase, conversion of cholesterol by cholesterol oxidase, and subsequent measurement by the Trinder reaction of the hydrogen peroxide formed (Allain et al., 1974).
Cholesterol esters are cleaved by the action of cholesterol esterase to yield free cholesterol and fatty acids. Cholesterol oxidase then catalyzes the oxidation of cholesterol to cholest-4-en-3-one and hydrogen peroxide. In the presence of peroxidase, the hydrogen peroxide formed effects the oxidative coupling of phenol and 4-aminophenazone to form a red quinone-imine dye. The color intensity of the dye formed is directly proportional to the cholesterol concentration. It is determined by measuring the increase in absorbance.
Human serum and plasma samples cholesterol determination was done on a Roche/Hitachi Cobas c 701/702 system which automatically calculate the analyte concentration of each sample.

[1] = 50 mg q.d. non responders switching to 100 mg q.d. at week 12, week 1
[2] = 50 mg q.d. non responders switching to 100 mg q.d. at week 12, week 2
[3] = 50 mg q.d. non responders switching to 100 mg q.d. at week 12, week 4
[4] = 50 mg q.d. non responders switching to 100 mg q.d. at week 12, week 8
[5] = 50 mg q.d. non responders switching to 100 mg q.d. at week 12, week 12
[6] = 50 mg q.d. non responders switching to 100 mg q.d. at week 12, week 16
[7] = 50 mg q.d. non responders switching to 100 mg q.d. at week 12, week 20
[8] = 50 mg q.d. non responders switching to 100 mg q.d. at week 12, week 24

O=C(Nc1nc2cccc(-c3ccc(CN4CCS(=O)(=O)CC4)cc3)n2n1)C1CC1 [Compound 1, cyclopropanecarboxylic acid {5-[4-(1,1-dioxo-thiomorpholin-4-ylmethyl)-phenyl]-[1,2,4]triazolo[1,5-a]pyridin-2yl}-amide]
[total cholesterol] Mean percentage CFB - 24 weeks results [1]: 4.56%
[total cholesterol] Median percentage CFB - 24 weeks results [1]: 2.94%
[total cholesterol] Mean percentage CFB - 24 weeks results [2]: 3.50%
[total cholesterol] Median percentage CFB - 24 weeks results [2]: 2.00%
[total cholesterol] Mean percentage CFB - 24 weeks results [3]: 7.51%
[total cholesterol] Median percentage CFB - 24 weeks results [3]: 6.58%
[total cholesterol] Mean percentage CFB - 24 weeks results [4]: 5.10%
[total cholesterol] Median percentage CFB - 24 weeks results [4]: 2.88%
[total cholesterol] Mean percentage CFB - 24 weeks results [5]: 5.83%
[total cholesterol] Median percentage CFB - 24 weeks results [5]: 6.79%
[total cholesterol] Mean percentage CFB - 24 weeks results [6]: 9.72%
[total cholesterol] Median percentage CFB - 24 weeks results [6]: 11.41%
[total cholesterol] Mean percentage CFB - 24 weeks results [7]: 9.75%
[total cholesterol] Median percentage CFB - 24 weeks results [7]: 7.07%
[total cholesterol] Mean percentage CFB - 24 weeks results [8]: 10.66%
[total cholesterol] Median percentage CFB - 24 weeks results [8]: 10.65%
[total cholesterol] Mean percentage CFB - 24 weeks results (50 mg q.d. responders, week 1): 0.02%
[total cholesterol] Median percentage CFB - 24 weeks results (50 mg q.d. responders, week 1): 0.35%
[total cholesterol] Median percentage CFB - 24 weeks results (50 mg q.d. responders, week 2): −0.82%
[total cholesterol] Mean percentage CFB - 24 weeks results (50 mg q.d. responders, week 4): 1.68%
[total cholesterol] Median percentage CFB - 24 weeks results (50 mg q.d. responders, week 4): −0.51%
[total cholesterol] Mean percentage CFB - 24 weeks results (50 mg q.d. responders, week 8): 5.55%
[total cholesterol] Median percentage CFB - 24 weeks results (50 mg q.d. responders, week 8): 5.74%
[total cholesterol] Mean percentage CFB - 24 weeks results (50 mg q.d. responders, week 12): 3.59%
[total cholesterol] Median percentage CFB - 24 weeks results (50 mg q.d. responders, week 12): 1.01%
[total cholesterol] Mean percentage CFB - 24 weeks results (50 mg q.d. responders, week 16): 5.85%
[total cholesterol] Median percentage CFB - 24 weeks results (50 mg q.d. responders, week 16): 2.92%
[total cholesterol] Mean percentage CFB - 24 weeks results (50 mg q.d. responders, week 20): 2.09%
[total cholesterol] Median percentage CFB - 24 weeks results (50 mg q.d. responders, week 20): 3.75%
[total cholesterol] Mean percentage CFB - 24 weeks results (50 mg q.d. responders, week 24): 3.49%
[total cholesterol] Median percentage CFB - 24 weeks results (50 mg q.d. responders, week 24): 5.44%
[total cholesterol] Mean percentage CFB - 12 weeks results (50 mg q.d., week 1): 0.96%
[total cholesterol] Median percentage CFB - 12 weeks results (50 mg q.d., week 1): 2.12%
[total cholesterol] Mean percentage CFB - 12 weeks results (50 mg q.d., week 2): −0.18%
[total cholesterol] Median percentage CFB - 12 weeks results (50 mg q.d., week 2): 0.00%
[total cholesterol] Mean percentage CFB - 12 weeks results (50 mg q.d., week 4): 2.91%
[total cholesterol] Median percentage CFB - 12 weeks results (50 mg q.d., week 4): 0.00%
[total cholesterol] Mean percentage CFB - 12 weeks results (50 mg q.d., week 8): 5.45%
[total cholesterol] Median percentage CFB - 12 weeks results (50 mg q.d., week 8): 4.90%
[total cholesterol] Mean percentage CFB - 12 weeks results (50 mg q.d., week 12): 4.08%
[total cholesterol] Median percentage CFB - 12 weeks results (50 mg q.d., week 12): 3.43%
[total cholesterol] Mean percentage CFB - 12 weeks results (100 mg q.d., week 1): 4.15%
[total cholesterol] Mean percentage CFB - 24 weeks results (100 mg q.d., week 1): 4.15%
[total cholesterol] Median percentage CFB - 24 weeks results (100 mg q.d., week 1): 2.38%
[total cholesterol] Mean percentage CFB - 12 weeks results (100 mg q.d., week 2): 4.96%
[total cholesterol] Mean percentage CFB - 24 weeks results (100 mg q.d., week 2): 4.96%
[total cholesterol] Median percentage CFB - 24 weeks results (100 mg q.d., week 2): 2.65%
[total cholesterol] Mean percentage CFB - 12 weeks results (100 mg q.d., week 4): 8.28%
[total cholesterol] Mean percentage CFB - 24 weeks results (100 mg q.d., week 4): 8.28%
[total cholesterol] Median percentage CFB - 24 weeks results (100 mg q.d., week 4): 5.40%
[total cholesterol] Mean percentage CFB - 12 weeks results (100 mg q.d., week 8): 7.75%
[total cholesterol] Mean percentage CFB - 24 weeks results (100 mg q.d., week 8): 7.75%
[total cholesterol] Median percentage CFB - 24 weeks results (100 mg q.d., week 8): 6.08%
[total cholesterol] Mean percentage CFB - 12 weeks results (100 mg q.d., week 12): 12.45%
[total cholesterol] Mean percentage CFB - 24 weeks results (100 mg q.d., week 12): 12.45%
[total cholesterol] Median percentage CFB - 24 weeks results (100 mg q.d., week 12): 6.41%
[total cholesterol] Mean percentage CFB - 24 weeks results (100 mg q.d., week 16): 10.96%
[total cholesterol] Median percentage CFB - 24 weeks results (100 mg q.d., week 16): 8.91%
[total cholesterol] Mean percentage CFB - 24 weeks results (100 mg q.d., week 20): 10.06%
[total cholesterol] Median percentage CFB - 24 weeks results (100 mg q.d., week 20): 9.85%
[total cholesterol] Mean percentage CFB - 24 weeks results (100 mg q.d., week 24): 11.75%
[total cholesterol] Median percentage CFB - 24 weeks results (100 mg q.d., week 24): 10.29%
[total cholesterol] Mean percentage CFB - 12 weeks results (200 mg q.d., week 1): 5.77%
[total cholesterol] Mean percentage CFB - 24 weeks results (200 mg q.d., week 1): 5.77%
[total cholesterol] Median percentage CFB - 24 weeks results (200 mg q.d., week 1): 5.37%
[total cholesterol] Mean percentage CFB - 12 weeks results (200 mg q.d., week 2): 7.74%
[total cholesterol] Mean percentage CFB - 24 weeks results (200 mg q.d., week 2): 7.74%
[total cholesterol] Median percentage CFB - 24 weeks results (200 mg q.d., week 2): 6.90%
[total cholesterol] Mean percentage CFB - 12 weeks results (200 mg q.d., week 4): 9.35%

Reference: patent US10376520B2, “Methods for the treatment of cardiovascular disorders” (Galapagos NV, priority 2015, dated 2019)
